Data from ChEMBL document CHEMBL4765282, “Design, synthesis and biological evaluation of 1H-pyrazolo [3,4-d]pyrimidine derivatives as PAK1 inhibitors that trigger apoptosis, ER stress and anti-migration effect in MDA-MB-231 cells” (Eur J Med Chem, 2020).
Active and inactive are the calls of the source. No cut-off for these calls is given here.

Experiments:
Homo sapiens [1] = species on record: Homo sapiens; assay: Selectivity ratio of IC50 for inhibition of PAK3 (unknown origin) to IC50 for inhibition of PAK1 (unknown origin)
Homo sapiens [2] = species on record: Homo sapiens; assay: Selectivity ratio of IC50 for inhibition of PAK2 (unknown origin) to IC50 for inhibition of PAK1 (unknown origin)
[3] = biological target: Serine/threonine-protein kinase PAK 2 (Homo sapiens, UniProt Q13177); assay: Inhibition of PAK2 (unknown origin) […] measured after 40 mins by ADP-glo kinase assay
Serine/threonine-protein kinase PAK 2, sequence (Q13177 whole entry): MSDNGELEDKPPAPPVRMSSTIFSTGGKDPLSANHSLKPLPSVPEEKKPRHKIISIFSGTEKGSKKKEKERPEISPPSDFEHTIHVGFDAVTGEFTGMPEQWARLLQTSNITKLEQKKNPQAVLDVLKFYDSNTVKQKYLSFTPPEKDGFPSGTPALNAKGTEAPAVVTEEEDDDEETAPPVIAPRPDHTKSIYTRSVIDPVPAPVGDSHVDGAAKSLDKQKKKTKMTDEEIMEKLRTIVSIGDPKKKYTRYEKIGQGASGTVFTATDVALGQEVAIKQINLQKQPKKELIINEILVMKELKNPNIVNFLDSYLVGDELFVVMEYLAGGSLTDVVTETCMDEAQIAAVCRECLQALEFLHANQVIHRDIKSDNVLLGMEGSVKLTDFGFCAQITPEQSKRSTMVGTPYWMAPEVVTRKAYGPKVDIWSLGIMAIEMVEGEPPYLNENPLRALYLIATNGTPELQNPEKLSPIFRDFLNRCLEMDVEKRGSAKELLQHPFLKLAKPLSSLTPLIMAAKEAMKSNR

[4] = biological target: Serine/threonine-protein kinase PAK 3 (Homo sapiens, UniProt O75914); assay: Inhibition of PAK3 (unknown origin) […] measured after 40 mins by ADP-glo kinase assay
Serine/threonine-protein kinase PAK 3, sequence (O75914 whole entry): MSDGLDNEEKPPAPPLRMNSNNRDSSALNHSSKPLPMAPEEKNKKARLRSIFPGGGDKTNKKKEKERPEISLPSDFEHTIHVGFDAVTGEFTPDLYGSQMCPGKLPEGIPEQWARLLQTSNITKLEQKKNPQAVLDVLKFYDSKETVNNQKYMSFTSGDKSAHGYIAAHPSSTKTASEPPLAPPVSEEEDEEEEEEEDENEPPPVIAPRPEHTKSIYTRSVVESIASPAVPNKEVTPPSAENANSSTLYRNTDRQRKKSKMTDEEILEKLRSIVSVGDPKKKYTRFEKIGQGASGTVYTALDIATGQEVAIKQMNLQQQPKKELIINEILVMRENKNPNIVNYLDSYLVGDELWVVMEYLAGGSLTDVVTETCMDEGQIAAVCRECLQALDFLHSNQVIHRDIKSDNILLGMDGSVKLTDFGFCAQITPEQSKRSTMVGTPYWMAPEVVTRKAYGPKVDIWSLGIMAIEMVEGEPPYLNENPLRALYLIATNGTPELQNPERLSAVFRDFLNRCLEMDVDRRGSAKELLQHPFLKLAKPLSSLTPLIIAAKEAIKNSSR

[5] = biological target: T1, Serine/threonine-protein kinase PAK 1 (Homo sapiens, UniProt Q13153); assay: Inhibition of PAK1 phosphorylation at Ser199 residues in human MDA-MB-231 cells at 10 to 40 uM measured after 24 hrs by Western blot analysis; assay type: cell-based; details: dose 10-40 µM
T1 sequence (Q13153 whole entry): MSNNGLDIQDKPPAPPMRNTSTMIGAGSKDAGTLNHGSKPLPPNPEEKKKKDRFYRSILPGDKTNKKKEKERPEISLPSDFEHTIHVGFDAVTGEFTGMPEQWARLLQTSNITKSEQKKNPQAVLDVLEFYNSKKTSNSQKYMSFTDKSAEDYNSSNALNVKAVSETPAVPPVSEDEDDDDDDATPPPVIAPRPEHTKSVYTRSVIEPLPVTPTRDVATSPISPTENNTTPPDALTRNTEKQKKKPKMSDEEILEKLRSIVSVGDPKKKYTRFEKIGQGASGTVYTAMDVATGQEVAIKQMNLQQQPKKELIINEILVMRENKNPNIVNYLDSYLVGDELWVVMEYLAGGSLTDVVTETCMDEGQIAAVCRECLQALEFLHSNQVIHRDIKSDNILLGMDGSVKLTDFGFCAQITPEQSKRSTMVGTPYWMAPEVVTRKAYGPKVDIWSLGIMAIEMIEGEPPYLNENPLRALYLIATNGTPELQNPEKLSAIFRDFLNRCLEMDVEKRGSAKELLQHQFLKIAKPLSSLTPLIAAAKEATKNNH

[6] = biological target: T1, Serine/threonine-protein kinase PAK 1; assay: Inhibition of PAK1 in human MDA-MB-231 cells assessed as reduction in ERK expression at 10 to 40 uM measured after 24 hrs by Western blot analysis; assay type: cell-based; details: dose 10-40 µM
[7] = biological target: T1, Serine/threonine-protein kinase PAK 1; assay: Inhibition of PAK1 in human MDA-MB-231 cells assessed as reduction in MEK1/2 phosphorylation at ser217/221 residues at 10 to 40 uM measured after 24 hrs by Western blot analysis; assay type: cell-based; details: dose 10-40 µM
MDA-MB-231 [8] = assay: Induction of apoptosis in human MDA-MB-231 cells assessed as increase in DNA fragmentation at 10 to 40 uM measured after 24 hrs by Hoechst 33258 staining based assay; assay type: functional, cell-based; details: dose 10-40 µM
MDA-MB-231 [9] = assay: Induction of apoptosis in human MDA-MB-231 cells assessed as increase in late apoptosis measured after 24 hrs by Annexin V-FITC/propidium iodide staining based flow cytometry; assay type: functional, cell-based
MDA-MB-231 [10] = assay: Induction of apoptosis in human MDA-MB-231 cells assessed as increase in early apoptosis measured after 24 hrs by Annexin V-FITC/propidium iodide staining based flow cytometry; assay type: functional, cell-based
MDA-MB-231 [11] = assay: Induction of apoptosis in human MDA-MB-231 cells assessed as late apoptotic cells at 10 uM measured after 24 hrs by Annexin V-FITC/propidium iodide staining based flow cytometry (reference value: 0.57%); assay type: functional
MDA-MB-231 [12] = assay: Induction of apoptosis in human MDA-MB-231 cells assessed as necrotic cells at 10 uM measured after 24 hrs by Annexin V-FITC/propidium iodide staining based flow cytometry (reference value: 0.16%); assay type: functional
MDA-MB-231 [13] = assay: Induction of apoptosis in human MDA-MB-231 cells assessed as necrotic cells at 20 uM measured after 24 hrs by Annexin V-FITC/propidium iodide staining based flow cytometry (reference value: 0.16%); assay type: functional
MDA-MB-231 [14] = assay: Induction of apoptosis in human MDA-MB-231 cells assessed as viable cells at 40 uM measured after 24 hrs by Annexin V-FITC/propidium iodide staining based flow cytometry (reference value: 98.46%); assay type: functional; details: read-out: Activity
MDA-MB-231 [15] = assay: Induction of apoptosis in human MDA-MB-231 cells assessed as late apoptotic cells at 40 uM measured after 24 hrs by Annexin V-FITC/propidium iodide staining based flow cytometry (reference value: 0.57%); assay type: functional
MDA-MB-231 [16] = assay: Induction of apoptosis in human MDA-MB-231 cells assessed as upregulation of Bax expression at 10 to 40 uM measured after 24 hrs by Western blot analysis; assay type: functional, cell-based; details: dose 10-40 µM
MDA-MB-231 [17] = assay: Induction of apoptosis in human MDA-MB-231 cells assessed as down regulation of Bcl-2 expression at 10 to 40 uM measured after 24 hrs by Western blot analysis; assay type: functional, cell-based; details: dose 10-40 µM
MDA-MB-231 [18] = assay: Induction of apoptosis in human MDA-MB-231 cells assessed as increase in caspase-3 cleavage at 10 to 40 uM measured after 24 hrs by Western blot analysis; assay type: functional, cell-based; details: dose 10-40 µM
MDA-MB-231 [19] = assay: Induction of apoptosis in human MDA-MB-231 cells assessed as increase in PARP cleavage at 10 to 40 uM measured after 24 hrs by Western blot analysis; assay type: functional, cell-based; details: dose 10-40 µM
[20] = Effect on DDIT4 gene expression in human MDA-MB-231 cells by Trizol reagent based RNA sequencing analysis relative to control; assay type: functional
[21] = Effect on HYOU1 gene expression in human MDA-MB-231 cells by Trizol reagent based RNA sequencing analysis relative to control; assay type: functional
[22] = Effect on SHMT2 gene expression in human MDA-MB-231 cells by Trizol reagent based RNA sequencing analysis relative to control; assay type: functional
[23] = Effect on DDIT3 gene expression in human MDA-MB-231 cells by Trizol reagent based RNA sequencing analysis relative to control; assay type: functional
[24] = Effect on STC2 gene expression in human MDA-MB-231 cells by Trizol reagent based RNA sequencing analysis relative to control; assay type: functional
[25] = Effect on EGR1 gene expression in human MDA-MB-231 cells by Trizol reagent based RNA sequencing analysis relative to control; assay type: functional
[26] = Effect on GPT2 gene expression in human MDA-MB-231 cells by Trizol reagent based RNA sequencing analysis relative to control; assay type: functional
[27] = Effect on BEX2 gene expression in human MDA-MB-231 cells by Trizol reagent based RNA sequencing analysis relative to control; assay type: functional
[28] = Effect on KLF15 gene expression in human MDA-MB-231 cells by Trizol reagent based RNA sequencing analysis relative to control; assay type: functional
[29] = Effect on KLHDC7B gene expression in human MDA-MB-231 cells by Trizol reagent based RNA sequencing analysis relative to control; assay type: functional
[30] = Effect on GRID1 gene expression in human MDA-MB-231 cells by Trizol reagent based RNA sequencing analysis relative to control; assay type: functional
[31] = Effect on CDHR4 gene expression in human MDA-MB-231 cells by Trizol reagent based RNA sequencing analysis relative to control; assay type: functional; details: dose 10-40 µM; time 24 hrs
MDA-MB-231 [32] = assay: Upregulation of phosphorylated PERK Thr980 expression in human MDA-MB-231 cells at 10 to 40 uM measured after 24 hrs by Western blot analysis; assay type: functional, cell-based; details: dose 10-40 µM
MDA-MB-231 [33] = assay: Down regulation of JNK expression in human MDA-MB-231 cells at 20 uM measured after 24 hrs by immunofluorescence assay; assay type: functional, cell-based
[34] = biological target: T2, Mitogen-activated protein kinase 8/9 (Homo sapiens) (UniProt P45983+P45984); assay: Inhibition of JNK1/2 in human MDA-MB-231 cells assessed as reduction in SAPK/JNK phosphorylation at […] residues at 10 to 40 uM after 24 hrs by Western blot analysis; assay type: cell-based; details: dose 10-40 µM
T2 sequence (P45983 whole entry, looked up): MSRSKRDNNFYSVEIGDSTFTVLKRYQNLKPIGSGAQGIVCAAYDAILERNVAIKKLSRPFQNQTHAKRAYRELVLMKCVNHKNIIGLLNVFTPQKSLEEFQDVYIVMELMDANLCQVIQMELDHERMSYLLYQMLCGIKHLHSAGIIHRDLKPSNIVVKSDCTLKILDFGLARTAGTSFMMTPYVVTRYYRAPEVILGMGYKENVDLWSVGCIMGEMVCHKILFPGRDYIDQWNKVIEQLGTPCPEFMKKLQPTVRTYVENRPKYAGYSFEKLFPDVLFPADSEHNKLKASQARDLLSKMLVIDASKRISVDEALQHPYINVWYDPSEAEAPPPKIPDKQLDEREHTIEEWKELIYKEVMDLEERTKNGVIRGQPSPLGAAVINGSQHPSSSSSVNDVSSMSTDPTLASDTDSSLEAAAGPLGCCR
T2 sequence (P45984 whole entry, looked up): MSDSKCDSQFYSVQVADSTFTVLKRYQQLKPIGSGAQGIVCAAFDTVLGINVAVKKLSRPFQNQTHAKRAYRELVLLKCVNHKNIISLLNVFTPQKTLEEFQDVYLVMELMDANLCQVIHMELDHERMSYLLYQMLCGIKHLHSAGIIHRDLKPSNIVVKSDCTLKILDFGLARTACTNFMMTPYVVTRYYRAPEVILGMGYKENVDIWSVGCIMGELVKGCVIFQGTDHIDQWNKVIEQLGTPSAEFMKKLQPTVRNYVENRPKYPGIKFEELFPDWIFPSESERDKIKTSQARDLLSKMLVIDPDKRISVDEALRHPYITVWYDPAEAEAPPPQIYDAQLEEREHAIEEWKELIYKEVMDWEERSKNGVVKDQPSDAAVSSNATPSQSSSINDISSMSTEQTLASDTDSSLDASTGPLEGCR

[35] = biological target: T2, Mitogen-activated protein kinase 8/9 (Homo sapiens); assay: Inhibition of JNK1/2 in human MDA-MB-231 cells assessed as reduction in c-JUN phosphorylation at Ser63 residues at 10 to 40 uM after 24 hrs by Western blot analysis; assay type: cell-based; details: dose 10-40 µM
MDA-MB-231 [36] = assay: Up regulation of MMP-2 expression in human MDA-MB-231 cells at 10 to 40 uM measured after 24 hrs by Western blot analysis; assay type: functional, cell-based; details: dose 10-40 µM

O=C(Nc1cc(C(F)(F)F)cc(C(F)(F)F)c1)NC1CCN(c2ncnc3[nH]ncc23)CC1
Ratio IC50 (Homo sapiens [1]): 5
Ratio IC50 (Homo sapiens [2]): 5
IC50 [3]: 1040 nM
IC50 [4]: 1370 nM
inhibition [5]: Active
inhibition [6]: Active
inhibition [7]: Active
Activity (MDA-MB-231 [8]): Active
Activity (MDA-MB-231 [9]): Dose-dependent effect
Activity (MDA-MB-231 [10]): Dose-dependent effect
Activity (MDA-MB-231 [11]): 3.22%
Activity (MDA-MB-231 [12]): 1.64%
Activity (MDA-MB-231 [13]): 0.59%
viability at 40 µM (MDA-MB-231 [14]): 72.2%
Activity (MDA-MB-231 [15]): 12.06%
Activity (MDA-MB-231 [16]): Active
Activity (MDA-MB-231 [17]): Active
Activity (MDA-MB-231 [18]): Active
Activity (MDA-MB-231 [19]): Active
fold change (FC) [20]: >2
fold change (FC) [21]: >2
fold change (FC) [22]: >2
fold change (FC) [23]: >2
fold change (FC) [24]: >2
fold change (FC) [25]: >2
fold change (FC) [26]: >2
fold change (FC) [27]: >2
fold change (FC) [28]: >2
fold change (FC) [29]: >2
fold change (FC) [30]: >2
fold change (FC) [31]: >2
Activity (MDA-MB-231 [32]): Active
Activity (MDA-MB-231 [33]): inactive
inhibition [34]: Active
inhibition [35]: Active
Activity (MDA-MB-231 [36]): Active
